Measurements from patent US8821864B2, “Compounds and methods useful for detection and treatment of cancer” (Roche MTM Laboratories AG, priority 2002, dated 2014).

Tested on: HLA-A2.1 expressing cell lines presenting frameshift peptides
Assay: Cytotoxicity assay of CTL directed against cells displaying frameshift peptides
Type: cell-based, human
Details: cold targets: T2 cells pulsed with peptide, inhibitor:target ratio 50:1
Protocol: (§1) (FSP02); The antigen specificity of the FSP02 CTL line was tested in the presence of unlabeled cold targets, T2 cells pulsed with FSP02 (open squares) at an inhibitor:target ratio of 50:1. Lysis without cold targets is shown as a control (closed squares). All data are shown as the mean and standard deviation from 3 replicate wells. For experimental details see example 6.
as §1, with “(FSP06);” for “(FSP02);”, “FSP06” for “FSP02”, “pulsed either” for “pulsed”
CTL bulk cultures and/or CTL clones obtained according to the method described in Example 1 were tested for their cytotoxicity as follows:
Due to the limited amount of cell material clones were in some experiments pooled for the determination of the cytotoxicity. […]

| Sequence | lysis of target cells by FSP CTL line (antigen specificity) |
| --- | --- |
| RLSSCVPVA [FSP02, frameshift peptide from TGF-betaRII (−1), start amino acid 131] | Frameshift peptide specific and HLA-A2-restricted lysis of target cells |
| SLYKFSPFPL [FSP06, frameshift peptide from OGT (−1), start amino acid 128] | Frameshift peptide specific and HLA-A2-restricted lysis of target cells |
